For data set [1] the following is noted: cited from earlier work.
Data set [2] in a line: pH value of the aqueous solution with or without HSA. The following applies: about 25° C. The class given is physicochemical. The method, then:
245.3 mg of fosaprepitant dimeglumine and 0.28 mg of palonosetron hydrochloride were dissolved in methanol, and then methanol was removed from the solution to give a white solid.

The nature of data set [3]: Stability of fosaprepitant in a human serum albumin (HSA) solution, visual clarity. The class given is physicochemical. The following applies: for appearance of solution initially: 25° C.; for appearance of solution over time: after 1, 2, 3, 4, 6, 8 and 24 hours at 25° C. The method, then:
To 3 different vials containing 25 mg of fosaprepitant dimeglumine each were added 1 ml of 10% HSA solution (w/v), 1 ml of 5% HSA solution (w/v), and 1 ml of 2% HSA solution (w/v), respectively, at 25° C.

The mark [4] stands for this setting: 25 mg in 1 ml of 2% HSA solution (w/v).
The mark [5] stands for this setting: 25 mg in 1 ml of 5% HSA solution (w/v).
Setting [6] is: 25 mg in 1 ml of 10% HSA solution (w/v).

SMILES strings stand for the structures. Entries after “also recorded” stand apart in the source; their conditions may differ.

For `C[C@@H](O[C@H]1OCCN(Cc2n[nH]c(=O)[nH]2)[C@H]1c1ccc(F)cc1)c1cc(C(F)(F)F)cc(C(F)(F)F)c1` [Aprepitant, aprepitant], the solubility in acetonitrile entry in data set [1] (acetonitrile) is listed as “slightly soluble”. For the same compound, the solubility in ethanol entry in data set [1] (ethanol) is on record as “sparingly soluble”. In data set [1] (isopropyl acetate), the “solubility in isopropyl acetate” value is recorded as “sparingly soluble”. The solubility in water entry in data set [1] was “practicallyinsoluble; also recorded: insoluble”.

As for `C[C@@H](O[C@H]1OCCN(Cc2nn(P(=O)(O)O)c(=O)[nH]2)[C@H]1c1ccc(F)cc1)c1cc(C(F)(F)F)cc(C(F)(F)F)c1` [fosaprepitant dimeglumine], the “pH value of the clear aqueous solution” value in data set [2] (24.5 mg in 15 ml of 0.9% saline solution) is on record as 7.70; in data set [2] (24.5 mg in 15 ml of HSA solution (0.5 ml of 20% HSA + 14.5 ml of 0.9% saline)) it was 7.15. Moreover, the “appearance of solution initially” value in data set [3] (setting [4]), in data set [3] (setting [5]) and in data set [3] (setting [6]) was “clear aqueous solution” each time. Also, the “appearance of solution over time” value in data set [3] (setting [4]), in data set [3] (setting [5]) and in data set [3] (setting [6]) was “stayed clear” throughout.

Take `C[C@@H](O[C@H]1OCCN(Cc2nc(O)n(P(=O)(O)O)n2)[C@H]1c1ccc(F)cc1)c1cc(C(F)(F)F)cc(C(F)(F)F)c1` [fosaprepitant]: the solubility in water result in data set [1] is on record as “soluble”.
